Results from patent publication US20130143905A1, “NOVEL ANTAGONISTS FOR CCR2 AND USES THEREOF” (BOEHRINGER INGELHEIM INTERNATIONAL GMBH, priority 2009, published 2013).

Target: T1, CCR2 (Homo sapiens, UniProt P41597)
T1 construct: Membranes were prepared from THP-1 cells; endogenous in cells; host or cells: THP-1 (human acute monocytic leukaemia cells), membrane preparation
T1 sequence (P41597 1-360 isoform P41597-2): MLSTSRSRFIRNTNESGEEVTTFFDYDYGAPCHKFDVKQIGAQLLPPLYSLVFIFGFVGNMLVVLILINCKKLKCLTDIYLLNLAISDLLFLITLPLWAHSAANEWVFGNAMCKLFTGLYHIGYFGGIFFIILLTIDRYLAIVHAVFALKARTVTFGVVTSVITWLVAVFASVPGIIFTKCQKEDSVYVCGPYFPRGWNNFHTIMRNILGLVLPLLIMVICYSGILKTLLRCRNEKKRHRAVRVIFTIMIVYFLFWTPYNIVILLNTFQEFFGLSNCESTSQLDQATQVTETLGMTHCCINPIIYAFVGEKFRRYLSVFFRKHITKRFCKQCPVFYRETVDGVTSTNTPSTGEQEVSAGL
Assay: CCR2 receptor membrane binding assay ([125I]MCP-1, THP-1 membranes, SPA beads)
Details: THP-1 cell membranes, [125I]MCP-1 displacement, dissociation constant hKi
Procedure: The above exemplary substances have been tested for binding to CCR2 using a binding assay as outlined herein below:
THP-1 cells (human acute monocytic leukaemia cells) were cultured under standardized conditions at 37° C. and 5% CO2 in a humidified incubator. THP-1 cells were cultivated in RPMI 1640 medium (Gibco 21875) containing 1% MEM-NEAA (Gibso 11140) 2 mM L-glutamine, 1.5 g/L sodium bicarbonate, 4.5 g/L glucose, 10 mM HEPES and 1.0 mM sodium pyruvate, 90%; 10% fetal calf serum (FCS Gibco 10500-064).
Membranes were prepared from THP-1 cells. THP-1 cells were centrifuged at 300×g at 4° C. for 10 min. The cell pellet was resuspendet in Phosphate Buffer Saline (PBS, including 10 μM Pefabloc and a protease inhibitor mix ‘complete’, Boehringer Mannheim (1 tablet/50 ml)), to a concentration of […]. The membrane preparation was performed by disrupting the cells by nitrogen […] (at 50 bar, for 1 h) in a “Nitrogen Bombe” (Parr Instrument). Cell debris was removed by centrifugation (800×g at 4° C., 1 min). The supernatant was centrifuged at 80000×g, 4° C. for 30 min to sediment the cell membranes. Usually 50 mg of protein (Bradford assay) were yielded from 1×10E9 cells. The membranes were resuspendet in 25 mM HEPES, 25 mM MgCl2, 1 mM CaCl2, 10% Glycerine for storage in aliquots at −80° C. in 25 mM HEPES, 25 mM MgCl2, 1 mM CaCl2, 10% Glycerine and stored at −80° C.
Perkin Elmer NEX 332 Jod 125 MCP-1, Stock: 2200 Ci/mmol solved in 2000 μl assay buffer, stored at −20° C. THP-1 membrane were adjusted with 25 mM HEPES, pH 7.2; 5 mM MgCl2; 0.5 mM CaCl2; 0.2% BSA assay buffer to a concentration of 2.5 μg/15 μl. Amersham Biosciences PVT-WGA Beads (RPNQ0001) were adjusted with assay buffer to a concentration of 0.24 mg/30 μl. For preparation of the membrane-bead-suspension membranes and beads were incubated for 30 min at RT under rotation (60 rpm) with a ratio of 1:2. Test compounds dissolved in 100% DMSO to a concentration of 10 mM and are further diluted with 100% DMSO to 1 mM. All additional compound dilutions were obtained with assay buffer, final 1% DMSO. Compounds, membrane-bead-suspension and [125I]MCP-1 (ca. 25000 cpm/10 μl) were incubated. Bound radioactivity was determined by scintillation counter after 8 h. Determination of affinity of test compounds (dissociation constant hKi) is calculated by iterative fitting of experimental data using the “easy sys” program, which is based on law of mass action (Schittkowski K. (1994), Numerische Mathematik, Vol. 68, 129-142).

Ki [nM]	SMILES
9	CN(C1CCN(C2CCN(C(=O)c3ncnc(NC[C@H]4CCC[C@@H](c5ccccc5)C4)c3C3CC3)CC2)CC1)S(C)(=O)=O [Example 1]
82	CN(C1CCN(C2CCN(C(=O)c3ncnc(NCc4ccc(C(C)(C)C)cc4)c3C3CC3)CC2)CC1)S(C)(=O)=O [Example 2]
5	COc1c(NC[C@H]2CCC[C@@H](c3ccccc3)C2)ncnc1C(=O)N1CCC(N2CCC(N(C)S(C)(=O)=O)CC2)CC1 [Example 3]
15	COc1c(NCC2CCCC(c3ccccc3)C2)ncnc1C(=O)N1CCC(N2CCC(N(C)S(C)(=O)=O)CC2)CC1 (centres unmarked) [Example 4]
84	COc1c(NC[C@H]2CCC[C@@H](c3ccc(C)cc3)O2)ncnc1C(=O)N1CCC(N2CCC(N(C)S(C)(=O)=O)CC2)CC1 [Example 5]
18	COc1c(NC[C@H]2CCC[C@@H](c3ccc(C)cc3)O2)ncnc1C(=O)N1CCC(N[C@@H]2CCOC[C@@H]2OC)CC1 [Example 6]
13	COc1c(NC[C@H]2CCC[C@@H](c3ccc(C)cc3)O2)ncnc1C(=O)N1CCC(N[C@H]2CCOC[C@H]2OC)CC1 [Example 7]
73	COc1c(NC[C@H]2CCC[C@@H](c3cccc(C)c3)O2)ncnc1C(=O)N1CCC(N2CCC(N(C)S(C)(=O)=O)CC2)CC1 [Example 8]
25	COc1c(NC[C@H]2CCC[C@@H](c3cccc(C)c3)O2)ncnc1C(=O)N1CCC(N[C@@H]2CCOC[C@@H]2OC)CC1 [Example 9]
19	COc1c(NC[C@H]2CCC[C@@H](c3cccc(C)c3)O2)ncnc1C(=O)N1CCC(N[C@H]2CCOC[C@H]2OC)CC1 [Example 10]
121	COc1c(NCc2ccc(C(C)(C)C)cc2)ncnc1C(=O)N1CCC(N2CCC(N(C)S(C)(=O)=O)CC2)CC1 [Example 10a]
162	COc1c(NC[C@@H]2CCC[C@H](c3ccc(Cl)cc3)O2)ncnc1C(=O)N1CCC(N[C@@H]2CCOC[C@@H]2OC)CC1 [Example 10b]
377	COc1c(NC[C@@H]2CCC[C@H](c3ccc(Cl)cc3)O2)ncnc1C(=O)N1CCC(N2CCC(N(C)S(C)(=O)=O)CC2)CC1 [Example 10c]
120	COc1c(NC[C@@H]2CCC[C@H](c3ccc(Cl)cc3)O2)ncnc1C(=O)N1CCC(N[C@H]2CCOC[C@H]2OC)CC1 [Example 10d]
10	COc1c(NC[C@H]2CCC[C@@H](c3ccc(Cl)cc3)O2)ncnc1C(=O)N1CCC(N[C@@H]2CCOC[C@@H]2OC)CC1 [Example 10e]
60	COc1c(NC[C@H]2CCC[C@@H](c3ccc(Cl)cc3)O2)ncnc1C(=O)N1CCC(N2CCC(N(C)S(C)(=O)=O)CC2)CC1 [Example 10f]
7	COc1c(NC[C@H]2CCC[C@@H](c3ccc(Cl)cc3)O2)ncnc1C(=O)N1CCC(N[C@H]2CCOC[C@H]2OC)CC1 [Example 10g]
1	COc1c(NC[C@H]2CCC[C@@H](c3ccc(C(F)(F)F)cc3)O2)ncnc1C(=O)N1CCC(N[C@H]2CCOC[C@H]2OC)CC1 [Example 10h]
3	COc1c(NC[C@H]2CCC[C@@H](c3ccc(C(F)(F)F)cc3)O2)ncnc1C(=O)N1CCC(N[C@@H]2CCOC[C@@H]2OC)CC1 [Example 10i]
1	COc1c(NC[C@H]2CCC[C@@H](c3ccc(OC(F)(F)F)cc3)O2)ncnc1C(=O)N1CCC(N[C@H]2CCOC[C@H]2OC)CC1 [Example 10j]
2	COc1c(NC[C@H]2CCC[C@@H](c3ccc(OC(F)(F)F)cc3)O2)ncnc1C(=O)N1CCC(N[C@@H]2CCOC[C@@H]2OC)CC1 [Example 10k]
4	COc1c(NC[C@H]2CCC[C@@H](c3ccc(C(F)(F)F)cc3)O2)ncnc1C(=O)N1CCC(NC2CCOCC2F)CC1 (some centres unmarked) [Example 10l]
1	COc1c(NC[C@H]2CCC[C@@H](c3ccc(OC(F)(F)F)cc3)O2)ncnc1C(=O)N1CCC(NC2CCOCC2F)CC1 (some centres unmarked) [Example 10m]
12	COc1c(NC[C@H]2CCC[C@@H](c3ccccc3)C2)ncnc1C(=O)N1CCC(N[C@@H]2CCOC[C@@H]2OC)CC1 [Example 11]
5	COc1c(NC[C@H]2CCC[C@@H](c3ccccc3)C2)ncnc1C(=O)N1CCC(N[C@H]2CCOC[C@H]2OC)CC1 [Example 12]
5	COc1c(NC[C@H]2CCC[C@@H](c3ccccc3)C2)ncnc1C(=O)N1CCC(NC2CCOCC2OC)CC1 (some centres unmarked) [Example 13]
16	COc1c(NC[C@H]2CCC[C@@H](c3ccccc3)C2)ncnc1C(=O)N1CCC(N(C)C2CCOCC2OC)CC1 (some centres unmarked) [Example 14]
13	COc1c(NC[C@H]2CCC[C@@H](c3ccc(C)cc3)O2)ccnc1C(=O)N1CCC(N[C@H]2CCOC[C@H]2OC)CC1 [Example 15]
22	COc1c(NC[C@H]2CCC[C@@H](c3ccc(C)cc3)O2)ccnc1C(=O)N1CCC(N[C@@H]2CCOC[C@@H]2OC)CC1 [Example 16]
